Measured values taken from patent publication US6914045B2, “Glycopeptide antibiotics” (Wyeth Holdings Corporation, priority 2001, dated 2005).
In brackets after ≈: the same amount, converted by molar mass.

Assays:
Assay in all cases: in vitro antibacterial evaluation, MIC by broth dilution
Assay type in all cases: cell-based
[1] = system: Enterococcus sp.; settings: broth dilution, 18 hours at 35° C.
Method in brief: (§1)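 Following National Committee for Clinical Laboratory Standards recommendations (M7-A2), susceptibility was measured by dilution in Muller-Hinton II […]. Bacteria were seeded at 5×10^5 CFU/mL against compound concentrations from 64 down to 0.06 μg/mL.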

[2] = system: Streptococcus sp.; settings: broth dilution, 18 hours at 35° C.
Method in brief: as §1

[3] = system: Staphylococcus sp.; settings: broth dilution, 18 hours at 35° C.
Method in brief: as §1

[4] = system: Escherichia coli; settings: 18 hours at 35° C.
Method in brief: as §1

MIC Enterococcus avium (GC 4558) ([1]; Enterococcus avium (GC 4558)): 1 to 2 µg/mL
MIC Enterococcus faecalis (ATCC 29212) ([1]; Enterococcus faecalis (ATCC 29212)): 1 to 2 µg/mL
MIC Enterococcus faecalis (GC 2242) ([1]; Enterococcus faecalis (GC 2242)): <0.5 to 2 µg/mL
MIC Enterococcus faecalis (GC 2691) ([1]; Enterococcus faecalis (GC 2691)): 1 to 2 µg/mL
MIC Enterococcus faecalis (GC 3059) ([1]; Enterococcus faecalis (GC 3059)): 1 to 2 µg/mL
MIC Enterococcus faecalis (GC 4552) ([1]; Enterococcus faecalis (GC 4552)): 1 to 2 µg/mL
MIC Enterococcus faecalis (GC 4553) ([1]; Enterococcus faecalis (GC 4553)): 1 to 2 µg/mL
MIC Enterococcus faecalis (GC 4554) ([1]; Enterococcus faecalis (GC 4554)): 1 to 2 µg/mL
MIC Enterococcus faecalis (GC 6189) ([1]; Enterococcus faecalis (GC 6189)): 1 to 2 µg/mL
MIC Enterococcus faecium (GC 2243) ([1]; Enterococcus faecium (GC 2243)): 1 µg/mL (≈ 0.677 µM)
MIC Enterococcus faecium (GC 4556) ([1]; Enterococcus faecium (GC 4556)): <0.5 to 1 µg/mL
MIC Enterococcus faecium (GC 4557) ([1]; Enterococcus faecium (GC 4557)): <0.5 to 2 µg/mL
MIC Enterococcus faecalis (ATCC 29212) ([1]; strain ATCC 29212): 1 to 2 µg/mL
MIC Enterococcus faecalis (GC 2242) ([1]; strain GC 2242): <0.5 to 2 µg/mL
MIC Enterococcus faecium (GC 2243) ([1]; strain GC 2243): 1 µg/mL (≈ 0.677 µM)
MIC Enterococcus faecalis (GC 2691) ([1]; strain GC 2691): 1 to 2 µg/mL
MIC Enterococcus faecalis (GC 3059) ([1]; strain GC 3059): 1 to 2 µg/mL
MIC Enterococcus faecalis (GC 4552) ([1]; strain GC 4552): 1 to 2 µg/mL
MIC Enterococcus faecalis (GC 4553) ([1]; strain GC 4553): 1 to 2 µg/mL
MIC Enterococcus faecalis (GC 4554) ([1]; strain GC 4554): 1 to 2 µg/mL
MIC Enterococcus faecium (GC 4556) ([1]; strain GC 4556): <0.5 to 1 µg/mL
MIC Enterococcus faecium (GC 4557) ([1]; strain GC 4557): <0.5 to 2 µg/mL
MIC Enterococcus avium (GC 4558) ([1]; strain GC 4558): 1 to 2 µg/mL
MIC Enterococcus faecalis (GC 6189) ([1]; strain GC 6189): 1 to 2 µg/mL
MIC Streptococcus agalactiae (GC 4564) ([2]; Streptococcus agalactiae (GC 4564)): <0.06 µg/mL
MIC Streptococcus pneumoniae (ATCC 6301) ([2]; Streptococcus pneumoniae (ATCC 6301)): <0.06 µg/mL
MIC Streptococcus pneumoniae (GC 1894) ([2]; Streptococcus pneumoniae (GC 1894)): <0.06 µg/mL
MIC Streptococcus pneumoniae (GC 4565) ([2]; Streptococcus pneumoniae (GC 4565)): <0.06 µg/mL
MIC Streptococcus pyogenes (GC 4563) ([2]; Streptococcus pyogenes (GC 4563)): <0.06 µg/mL
MIC Streptococcus pneumoniae (ATCC 6301) ([2]; strain ATCC 6301): <0.06 µg/mL
MIC Streptococcus pneumoniae (GC 1894) ([2]; strain GC 1894): <0.06 µg/mL
MIC Streptococcus pyogenes (GC 4563) ([2]; strain GC 4563): <0.06 µg/mL
MIC Streptococcus agalactiae (GC 4564) ([2]; strain GC 4564): <0.06 µg/mL
MIC Streptococcus pneumoniae (GC 4565) ([2]; strain GC 4565): <0.06 µg/mL
MIC Coagulase Negative Staphylococcus (GC 4547) [3]: <0.5 to 1 µg/mL
MIC Coagulase Negative Staphylococcus (GC 4548) [3]: 0.25-0.25 μg/mL
MIC Coagulase Negative Staphylococcus (GC 4551) [3]: <0.5 to 1 µg/mL
MIC Coagulase Negative Staphylococcus (GC 6257) [3]: 0.25-0.25 μg/mL
MIC Staphylococcus aureus (ATCC 29213) [3]: <0.5 to 1 µg/mL
MIC Staphylococcus aureus (GC 1131) [3]: <0.5 to 1 µg/mL
MIC Staphylococcus aureus (GC 3051) [3]: <0.5 to 1 µg/mL
MIC Staphylococcus aureus (GC 3053) [3]: 1 µg/mL (≈ 0.677 µM)
MIC Staphylococcus aureus (GC 4541) [3]: <0.5 to 1 µg/mL
MIC Staphylococcus aureus (GC 4542) [3]: <0.5 to 1 µg/mL
MIC Staphylococcus aureus (GC 4544) [3]: <0.5 to 1 µg/mL
MIC Staphylococcus aureus (GC 4545) [3]: <0.5 to 1 µg/mL
MIC Staphylococcus aureus-SMITH (GC 4543) [3]: <0.5 to 1 µg/mL
MIC Staphylococcus aureus (GC 1131) ([3]; inoculum 5×10^5 CFU/mL, strain GC 1131): <0.5 to 1 µg/mL
MIC Staphylococcus aureus (ATCC 29213) ([3]; strain ATCC 29213): <0.5 to 1 µg/mL
MIC Staphylococcus aureus (GC 3051) ([3]; strain GC 3051): <0.5 to 1 µg/mL
MIC Staphylococcus aureus (GC 3053) ([3]; strain GC 3053): 1 µg/mL (≈ 0.677 µM)
MIC Staphylococcus aureus (GC 4541) ([3]; strain GC 4541): <0.5 to 1 µg/mL
MIC Staphylococcus aureus (GC 4542) ([3]; strain GC 4542): <0.5 to 1 µg/mL
MIC Staphylococcus aureus (GC 4544) ([3]; strain GC 4544): <0.5 to 1 µg/mL
MIC Staphylococcus aureus (GC 4545) ([3]; strain GC 4545): <0.5 to 1 µg/mL
MIC Coagulase Negative Staphylococcus (GC 4547) ([3]; strain GC 4547): <0.5 to 1 µg/mL
MIC Coagulase Negative Staphylococcus (GC 4548) ([3]; strain GC 4548): 0.25-0.25 μg/mL
MIC Coagulase Negative Staphylococcus (GC 4551) ([3]; strain GC 4551): <0.5 to 1 µg/mL
MIC Coagulase Negative Staphylococcus (GC 6257) ([3]; strain GC 6257): 0.25-0.25 μg/mL
MIC Staphylococcus aureus-SMITH (GC 4543) ([3]; strain SMITH GC 4543): <0.5 to 1 µg/mL
MIC Escherichia coli (ATCC 25922) ([4]; strain ATCC 25922): 16 to 32 µg/mL
MIC Escherichia coli (GC 4559) ([4]; strain GC 4559): 16 µg/mL (≈ 10.8 µM)
MIC Escherichia coli (GC 4560) ([4]; strain GC 4560): 1 µg/mL (≈ 0.677 µM)
Compound: CC(c1ccccc1)C1NC(=O)CNC(=O)C(CO)NC(=O)C(C(O)C2CNC(=N)N2C2OC(CO)C(O)C(O)C2O)NC(=O)C(C(O)C2CNC(=N)N2)NC(=O)C(Cc2ccc(OC3OC(CO)C(OC4OC5COC(Cc6ccc(Br)cc6)OC5C(O)C4O)C(O)C3O)cc2)NC1=O (stereo not drawn) [Example 118, Cyclo[glycyl-β-methylphenylalanyl-O-[4-O-[4,6-O-(4-bromophenethylidene)hexopyranosyl]-hexopyranosyl]tyrosyl-3-(2-iminoimidazolidin-4-yl)seryl-3-(3-hexopyranosyl-2-iminoimidazolidin-4-yl)serylseryl]]
